Assay type in all cases: cell-based
The target in experiment [1] is T1, MycN protein (Homo sapiens, UniProt P04198).
T1 construct: either 2×10^6 of L-363 (human leukemia cell line) or SKNBE2 (neuroblastoma cell line) cells; endogenous in cells; host or cells: SKNBE2 / SK-N-BE(2) neuroblastoma cells
T1 sequence (P04198 1-464): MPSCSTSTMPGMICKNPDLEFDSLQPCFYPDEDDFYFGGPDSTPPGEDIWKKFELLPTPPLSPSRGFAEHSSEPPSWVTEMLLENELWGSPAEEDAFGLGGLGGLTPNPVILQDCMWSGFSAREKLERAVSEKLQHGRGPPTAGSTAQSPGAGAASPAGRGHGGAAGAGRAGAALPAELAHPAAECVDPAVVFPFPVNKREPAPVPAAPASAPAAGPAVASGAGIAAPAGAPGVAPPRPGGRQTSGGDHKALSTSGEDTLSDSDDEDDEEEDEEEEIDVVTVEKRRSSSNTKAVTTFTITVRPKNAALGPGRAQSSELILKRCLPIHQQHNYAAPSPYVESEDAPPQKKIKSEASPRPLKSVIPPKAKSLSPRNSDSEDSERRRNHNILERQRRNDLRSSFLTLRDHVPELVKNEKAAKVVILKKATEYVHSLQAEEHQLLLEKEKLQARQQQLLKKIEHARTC
The experiment is described as follows: Degradation of MycN protein, Western blot, SKNBE2 cells (Example 160). The gist of the method: (§1)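 L-363 or SKNBE2 cells (passage <40, mostly <30) at 1×10^6 cells/mL in RPMI 1640/10% FBS were exposed 6 h to compound added from a 1 mM stock. RIPA lysates (25–30 ug protein) were analysed by SDS-PAGE and immunoblot with 1:500 primary antibody, with protein level quantified by band densitometry.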
For orientation: In western blotting, separated proteins are transferred to a membrane and probed.

Experiment [2] has as its target T2, MycC protein (c-myc) (Homo sapiens, UniProt P01106).
T2 construct: either 2×10^6 of L-363 (human leukemia cell line) cells; endogenous in cells; host or cells: L-363 / L363 human leukemia cells
The experiment is described as follows: Degradation of MycC protein, 24 h treatment, JESS Western, L363 cells (Example 161). To be noted: L-363 cells. The gist of the method:
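L363 suspension cells were seeded at 1E6 per well and exposed to compound, prepared as 10 mM DMSO stocks, for 24 hrs. Cells were pelleted, washed with PBS and lysed on ice in RIPA buffer, and lysate protein was measured by BCA. c-myc was detected by JESS capillary Western in the chemiluminescence channel, normalised to tubulin and GAPDH loading controls read in the NIR channel against a DMSO control.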

The target in experiment [3] is T3, MycC protein (Homo sapiens, UniProt P01106).
T3 construct: either 2×10^6 of L-363 (human leukemia cell line) or SKNBE2 (neuroblastoma cell line) cells; endogenous in cells; host or cells: L-363 / L363 human leukemia cells
T3 sequence (P01106 whole entry): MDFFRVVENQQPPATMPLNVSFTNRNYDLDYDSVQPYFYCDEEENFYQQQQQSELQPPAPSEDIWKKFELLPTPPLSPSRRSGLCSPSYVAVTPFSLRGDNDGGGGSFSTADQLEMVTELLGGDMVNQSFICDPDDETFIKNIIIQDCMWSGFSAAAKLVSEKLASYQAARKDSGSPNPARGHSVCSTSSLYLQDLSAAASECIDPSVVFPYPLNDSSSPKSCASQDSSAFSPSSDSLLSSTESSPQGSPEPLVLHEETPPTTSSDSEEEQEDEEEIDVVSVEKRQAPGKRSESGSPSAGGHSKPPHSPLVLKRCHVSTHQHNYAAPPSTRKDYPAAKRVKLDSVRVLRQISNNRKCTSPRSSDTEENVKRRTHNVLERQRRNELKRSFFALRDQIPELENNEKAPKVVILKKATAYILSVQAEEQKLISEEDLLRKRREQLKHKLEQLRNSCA
Put plainly: Degradation of MycC protein, Western blot, L-363 cells (Example 160). The procedure, abridged:
as §1

In experiment [4] the target is T4, MycN protein (n-myc) (Homo sapiens, UniProt P04198).
T4 construct: either 2×10^6 of L-363 (human leukemia cell line) or SKNBE2 (neuroblastoma cell line) cells; endogenous in cells; host or cells: SKNBE2 / SK-N-BE(2) neuroblastoma cells
T4 sequence (P04198 1-464): T1 sequence (P04198 1-464)
The experiment is described as follows: Degradation of MycN protein, 24 h treatment, JESS Western, SK-N-BE(2) cells (Example 161). The note with it: SKNBE2 cells.

The inhibition is the change of the read-out against control, counted positive when it falls. Higher therefore signals a response far below the control.

T2 sequence (P01106 whole entry): as above

Turning to `CN1CC2(CC(N(C)c3nccc(Nc4cc(C5CC5)[nH]n4)n3)C2)C1` [Compound 7, N4-(5-cyclopropyl-1H-pyrazol-3-yl)-N2-methyl-N2-(2-methyl-2-azaspiro[3.3]heptan-6-yl)pyrimidine-2,4-diamine], the inhibition at 2 µM in experiment [1] (SKNBE2, 6 h) was less than 20%; in experiment [3] (6 h), 20 to 49%. For the same compound, the inhibition at 0.5 µM in experiment [2] (0.5 μM) and in experiment [4] (0.5 μM) was less than 20% in each case. The values for the inhibition at 1 µM in experiment [2] (1 μM) and in experiment [4] (1 μM) were 20 to 49% and less than 20%, respectively. For the same compound, the inhibition at 3 µM is 50 to 79% in experiment [2] (3 μM) and 20 to 49% in experiment [4] (3 μM). Further, the inhibition at 6 µM in experiment [2] (6 μM) and in experiment [4] (6 μM) was 80 to 100% in each case.

On to “N-((1R,4R)-4-((4-((5-cyclopropyl-1H-pyrazol-3-yl)amino)pyrimidin-2-yl)(methyl)amino)cyclohexyl)-3-methylcyclopent-3-ene-1-sulfonamide [Compound 153]”, for which the “% Degradation of MycN (SKNBE2) 6 h, 2 μM” value in experiment [1] is “**** (degradation 80-100%)”. The “% Degradation of MycC (L-363) 6 h, 2 μM” value in experiment [3] is reported as “**** (degradation 80-100%)”.

The values are drawn from patent US20230322722A1, “MODULATORS OF MYC FAMILY PROTO-ONCOGENE PROTEIN” (Nalo Therapeutics, priority 2020, published 2023).
